Test results as given in PubChem BioAssay (NCI).
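Step 1: Grow cells in 96-well plates. Step 2: Expose to compound for 48 hours at 5 concentrations. Step 3: Interpolate endpoints linearly; if unreached, use highest concentration. Here, GI50 denotes the concentration required for 50% inhibition of growth. At the TGI there is no net growth.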

Assays:
Experiment in all cases: NCI tumour cell line growth inhibition, 48 h
CCRF-CEM leukemia = test system: CCRF-CEM leukemia
NCI-H522 lung = test system: NCI-H522 lung
NCI-H23 lung = test system: NCI-H23 lung
RXF 393 renal = test system: RXF 393 renal
786-0 renal = test system: 786-0 renal
SR leukemia = test system: SR leukemia
SNB-19 CNS = test system: SNB-19 CNS
MDA-MB-231 breast = test system: MDA-MB-231 breast
EKVX NSCLC = test system: EKVX NSCLC
A498 renal = test system: A498 renal
NCI/ADR-RES ovarian = test system: NCI/ADR-RES ovarian
SK-MEL-5 melanoma = test system: SK-MEL-5 melanoma
OVCAR-3 ovarian = test system: OVCAR-3 ovarian
K-562 leukemia = test system: K-562 leukemia
CAKI-1 renal = test system: CAKI-1 renal
M14 melanoma = test system: M14 melanoma
SK-MEL-2 melanoma = test system: SK-MEL-2 melanoma
UACC-62 melanoma = test system: UACC-62 melanoma
SF-295 CNS = test system: SF-295 CNS
KM12 colon = test system: KM12 colon
MALME-3M melanoma = test system: MALME-3M melanoma
MCF7 breast = test system: MCF7 breast
IGROV1 ovarian = test system: IGROV1 ovarian
TK-10 renal = test system: TK-10 renal
OVCAR-4 ovarian = test system: OVCAR-4 ovarian
RPMI-8226 leukemia = test system: RPMI-8226 leukemia
U251 CNS = test system: U251 CNS
OVCAR-8 ovarian = test system: OVCAR-8 ovarian
HL-60(TB) leukemia = test system: HL-60(TB) leukemia
SK-MEL-28 melanoma = test system: SK-MEL-28 melanoma
MDA-MB-435 = test system: MDA-MB-435
HOP-62 NSCLC = test system: HOP-62 NSCLC
HCT-15 colon = test system: HCT-15 colon
NCI-H460 lung = test system: NCI-H460 lung
UACC-257 melanoma = test system: UACC-257 melanoma
HCT-116 colon = test system: HCT-116 colon
HOP-92 NSCLC = test system: HOP-92 NSCLC
HT29 colon = test system: HT29 colon
SNB-75 CNS = test system: SNB-75 CNS
ACHN renal = test system: ACHN renal
OVCAR-5 ovarian = test system: OVCAR-5 ovarian
HS 578T breast = test system: HS 578T breast
SF-539 CNS = test system: SF-539 CNS
NCI-H226 lung = test system: NCI-H226 lung
SN12C renal = test system: SN12C renal
T-47D breast = test system: T-47D breast
SK-OV-3 ovarian = test system: SK-OV-3 ovarian
SF-268 CNS = test system: SF-268 CNS
LOX IMVI melanoma = test system: LOX IMVI melanoma
SW-620 colon = test system: SW-620 colon
BT-549 breast = test system: BT-549 breast
UO-31 renal = test system: UO-31 renal
COLO 205 colon = test system: COLO 205 colon
MOLT-4 leukemia = test system: MOLT-4 leukemia
A549 NSCLC = test system: A549 NSCLC
HCC-2998 colon = test system: HCC-2998 colon
DU-145 prostate = test system: DU-145 prostate
PC-3 prostate = test system: PC-3 prostate

COc1ccc(C2CC(c3ccc4ccccc4c3)=NN2/C=C2\SC(=S)N(NC(=O)Cc3ccccc3Nc3c(Cl)cccc3Cl)C2=O)cc1 (centres undefined)
GI50 (CCRF-CEM leukemia): 0.239 µM
TGI (CCRF-CEM leukemia): > 100 µM
GI50 (NCI-H522 lung): 0.372 µM
TGI (NCI-H522 lung): 4.76 µM
GI50 (NCI-H23 lung): 0.793 µM
TGI (NCI-H23 lung): > 46.8 µM
GI50 (RXF 393 renal): 0.282 µM
TGI (RXF 393 renal): 1.16 µM
GI50 (786-0 renal): 0.508 µM
TGI (786-0 renal): > 38.1 µM
GI50 (SR leukemia): 0.309 µM
TGI (SR leukemia): > 100 µM
GI50 (SNB-19 CNS): 0.636 µM
TGI (SNB-19 CNS): > 46.8 µM
GI50 (MDA-MB-231 breast): 1.6 µM
TGI (MDA-MB-231 breast): > 44.4 µM
GI50 (EKVX NSCLC): 1.45 µM
TGI (EKVX NSCLC): > 61.5 µM
GI50 (A498 renal): 0.302 µM
TGI (A498 renal): 0.99 µM
GI50 (NCI/ADR-RES ovarian): 0.421 µM
TGI (NCI/ADR-RES ovarian): > 34.5 µM
GI50 (SK-MEL-5 melanoma): 0.484 µM
TGI (SK-MEL-5 melanoma): > 36.9 µM
GI50 (OVCAR-3 ovarian): 0.343 µM
GI50 (K-562 leukemia): 0.402 µM
TGI (K-562 leukemia): > 100 µM
GI50 (CAKI-1 renal): 0.392 µM
TGI (CAKI-1 renal): > 40 µM
GI50 (M14 melanoma): 0.4 µM
TGI (M14 melanoma): 5.4 µM
GI50 (SK-MEL-2 melanoma): 2.95 µM
TGI (SK-MEL-2 melanoma): 18.8 µM
GI50 (UACC-62 melanoma): 0.606 µM
TGI (UACC-62 melanoma): > 43.8 µM
GI50 (SF-295 CNS): 0.724 µM
TGI (SF-295 CNS): > 32.7 µM
GI50 (KM12 colon): 0.37 µM
TGI (KM12 colon): > 33.5 µM
GI50 (MALME-3M melanoma): 1.34 µM
TGI (MALME-3M melanoma): > 49 µM
GI50 (MCF7 breast): 0.361 µM
TGI (MCF7 breast): > 50.5 µM
GI50 (IGROV1 ovarian): 0.588 µM
TGI (IGROV1 ovarian): > 42 µM
GI50 (TK-10 renal): 3.57 µM
TGI (TK-10 renal): 43.2 µM
GI50 (OVCAR-4 ovarian): 1.2 µM
TGI (OVCAR-4 ovarian): > 48 µM
GI50 (RPMI-8226 leukemia): 0.309 µM
TGI (RPMI-8226 leukemia): 1.78 µM
GI50 (U251 CNS): 0.402 µM
TGI (U251 CNS): > 36.7 µM
GI50 (OVCAR-8 ovarian): 0.693 µM
TGI (OVCAR-8 ovarian): > 100 µM
GI50 (HL-60(TB) leukemia): 0.404 µM
TGI (HL-60(TB) leukemia): 2.89 µM
GI50 (SK-MEL-28 melanoma): 4.45 µM
TGI (SK-MEL-28 melanoma): > 50 µM
GI50 (MDA-MB-435): 0.221 µM
TGI (MDA-MB-435): 0.547 µM
GI50 (HOP-62 NSCLC): 0.958 µM
TGI (HOP-62 NSCLC): > 49.9 µM
GI50 (HCT-15 colon): 0.467 µM
TGI (HCT-15 colon): > 65.1 µM
GI50 (NCI-H460 lung): 0.388 µM
TGI (NCI-H460 lung): > 34 µM
GI50 (UACC-257 melanoma): 3.86 µM
TGI (UACC-257 melanoma): > 100 µM
GI50 (HCT-116 colon): 0.482 µM
TGI (HCT-116 colon): > 39.6 µM
GI50 (HOP-92 NSCLC): 1.27 µM
TGI (HOP-92 NSCLC): > 53.4 µM
GI50 (HT29 colon): 2.3 µM
TGI (HT29 colon): > 26.3 µM
GI50 (SNB-75 CNS): 0.257 µM
TGI (SNB-75 CNS): 1.4 µM
GI50 (ACHN renal): 0.684 µM
TGI (ACHN renal): > 71.5 µM
GI50 (OVCAR-5 ovarian): 1.74 µM
TGI (OVCAR-5 ovarian): > 45.6 µM
GI50 (HS 578T breast): 0.415 µM
TGI (HS 578T breast): > 37.6 µM
GI50 (SF-539 CNS): 0.282 µM
TGI (SF-539 CNS): 1.12 µM
GI50 (NCI-H226 lung): 1.14 µM
TGI (NCI-H226 lung): > 32.3 µM
GI50 (SN12C renal): 0.647 µM
TGI (SN12C renal): > 48.9 µM
GI50 (T-47D breast): 0.788 µM
TGI (T-47D breast): 98.8 µM
GI50 (SK-OV-3 ovarian): 0.847 µM
TGI (SK-OV-3 ovarian): > 100 µM
GI50 (SF-268 CNS): 0.809 µM
TGI (SF-268 CNS): > 48.8 µM
GI50 (LOX IMVI melanoma): 0.556 µM
TGI (LOX IMVI melanoma): > 54 µM
GI50 (SW-620 colon): 0.416 µM
TGI (SW-620 colon): > 52.7 µM
GI50 (BT-549 breast): 0.681 µM
TGI (BT-549 breast): > 43 µM
GI50 (UO-31 renal): 0.354 µM
GI50 (COLO 205 colon): 1.89 µM
TGI (COLO 205 colon): > 100 µM
GI50 (MOLT-4 leukemia): 0.473 µM
TGI (MOLT-4 leukemia): > 100 µM
GI50 (A549 NSCLC): 0.507 µM
TGI (A549 NSCLC): > 47.2 µM
GI50 (HCC-2998 colon): 1.39 µM
TGI (HCC-2998 colon): > 33.3 µM
GI50 (DU-145 prostate): 0.404 µM
TGI (DU-145 prostate): 27.1 µM
GI50 (PC-3 prostate): 0.714 µM
TGI (PC-3 prostate): > 54 µM
